Here are results for one compound from patent US20040209956A1 (priority 2003, published 2004).

The nature of the series: Solubility and solid form in DMF/water/acetonitrile ternary solvent system. It is filed as physicochemical. The conditions noted are these: one molar equivalent excess maleic acid. The protocol:
The final set of solubility studies were conducted in ternary solvent systems of dimethyl formamide (DMF)/water/acetonitrile (ACN). This system was studied because most of the early success in crystallizing S-[2-[(1-Iminoethyl)amino]ethyl]-2-methyl-L-cysteine maleate salt was found in this solvent mixture. […] Experiments were only conducted for the last four of these compositions at 25° C., but the data was collected for the compositions at 5° C. Supernatant was analyzed after four and nineteen days. Equilibrated solids were also isolated and characterized after nineteen days from most experiments (see Table 5). […] Table 5, lists concentration data in wt % S-[2-[(1-Iminoethyl)amino]ethyl]-2-methyl-L-cysteine from all the experiments at 5 and 25° C. after four and nineteen days of equilibration. […] There is also some temperature dependence for solubility across all the experiments. When the data is analyzed at a fixed ACN content, it seems that the solubility initially decreases before increasing as the DMF content of the system is increased at the expense of water. This trend seems to hold for both 70 and 90% ACN. […] In summary, though this solvent system is complex, it does offer regions of solvent composition conducive to crystallization process design especially for form II.

For the compound `CC(=N)NCCSC[C@](C)(N)C(=O)O.O=C(O)/C=C\C(=O)O` [S-[2-[(1-Iminoethyl)amino]ethyl]-2-methyl-L-cysteine maleate], the “Solubility in DMF/water/acetonitrile” value came to 1.15 Wt % (5/5/90 D/W/A, 5° C., 4 Days); 1.16 Wt % (5/5/90 D/W/A, 5° C., 19 Days); 1.35 Wt % (6.3/3.4/90 D/W/A, 5° C., 4 Days); 1.02 Wt % (6.3/3.4/90 D/W/A, 5° C., 19 Days); 2.13 Wt % (6.3/3.4/90 D/W/A, 25° C., 4 Days); 1.74 Wt % (6.3/3.4/90 D/W/A, 25° C., 19 Days). For the same compound, the “Solubility in DMF/water/acetonitrile” value turned out to be 4.19 Wt % (7.5/2.5/90 D/W/A, 5° C., 4 Days); 2.12 Wt % (7.5/2.5/90 D/W/A, 5° C., 19 Days); 2.53 Wt % (7.5/2.5/90 D/W/A, 25° C., 4 Days); 2.45 Wt % (7.5/2.5/90 D/W/A, 25° C., 19 Days); 3.31 Wt % (15/15/70 D/W/A, 5° C., 4 Days); 5.71 Wt % (15/15/70 D/W/A, 5° C., 19 Days). Also, the “Solubility in DMF/water/acetonitrile” value is recorded as 2.91 Wt % (20/10/70 D/W/A, 5° C., 4 Days); 1.75 Wt % (20/10/70 D/W/A, 5° C., 19 Days); 3.46 Wt % (20/10/70 D/W/A, 25° C., 4 Days); 2.33 Wt % (20/10/70 D/W/A, 25° C., 19 Days); 3.06 Wt % (22.5/7.5/70 D/W/A, 5° C., 4 Days); 2.75 Wt % (22.5/7.5/70 D/W/A, 5° C., 19 Days). Also, the “Solubility in DMF/water/acetonitrile” value is on record as 4.90 Wt % (22.5/7.5/70 D/W/A, 25° C., 4 Days) and 7.38 Wt % (22.5/7.5/70 D/W/A, 25° C., 19 Days).
